Source: ChEMBL document CHEMBL1121878, “Synthesis of seleno- and thioguanine-platinum(II) complexes and their antitumor activity in mice” (1981)

Assays:
[1] = tested on: L1210; assay: Median survival time at a compound dose of 400 mg/kg, in mice bearing L1210 cells on days 1 and 5; type: functional, organism-based; parameters: dose 400 mg/kg; conditions: Mus musculus
[2] = tested on: L1210; assay: Median survival time at a compound dose of 50 mg/kg, in mice bearing L1210 cells on days 1 and 5; type: functional
[3] = tested on: L1210; assay: Median survival time at a compound dose of 800 mg/kg (administered on days 1 & 5) in mice bearing L1210 cells; type: functional, organism-based; parameters: dose 800 mg/kg; conditions: Mus musculus
[4] = tested on: L1210; assay: Median survival time when no dose was administered in mice bearing L1210 cells on days 1 and 5; type: functional
[5] = tested on: L1210; assay: (§1) Median survival time at a compound dose of 100 mg/kg, in mice bearing L1210 cells on days 1 and 5; type: functional; conditions: Mus musculus
[6] = tested on: L1210; assay: Ratio of the median survival time (treated(T) versus control(C)) at a dose of 400 mg/kg, on days 1 and 5; type: functional, organism-based; parameters: dose 400 mg/kg; conditions: Mus musculus
[7] = tested on: L1210; assay: Ratio of the median survival time (treated(T) versus control(C)) at a dose of 50x2 mg/kgxdays, on days 1 and 5; type: functional, organism-based; conditions: Mus musculus
[8] = tested on: L1210; assay: Ratio of the median survival time (treated(T) versus control(C)) at a dose of 800 mg/kg, on days 1 and 5; type: functional, organism-based; parameters: dose 800 mg/kg; conditions: Mus musculus
[9] = tested on: L1210; assay: Ratio of the median survival time (treated(T) versus control(C)) at a dose of 100x2 mg/kgxdays, on days 1 and 5; type: functional, organism-based; conditions: Mus musculus
[10] = The number of mice survived to that of total at a dose of 100 mg/kg on 30th day; 0/5; type: functional, organism-based; parameters: dose 100 mg/kg
[11] = The number of mice survived to that of total at a dose of 400 mg/kg on 30th day; 0/5; type: functional, organism-based; parameters: dose 400 mg/kg
[12] = The number of mice survived to that of total at a dose of 50 mg/kg on 30th day; 0/5; type: functional
[13] = The number of mice survived to that of total at a dose of 800 mg/kg on 30th day; 0/5; type: functional, organism-based; parameters: dose 800 mg/kg
[14] = The number of mice survived to that of total when no compound dose was given on 30th day; type: functional
[15] = tested on: L1210; assay: In vitro inhibitory concentration required for 50% inhibition of L1210 cell growth; type: functional; conditions: Mus musculus, read-out: ID50 (the source's name)
[16] = tested on: L1210; assay: as §1; type: functional, Mus musculus
[17] = tested on: L1210; assay: (§2) Ratio of the median survival time (treated(T) versus control(C)) at a dose of 100 mg/kg, on days 1 and 5; type: functional, Mus musculus
[18] = tested on: L1210; assay: (§3) Ratio of the median survival time (treated(T) versus control(C)) at a dose of 50 mg/kg, on days 1 and 5; type: functional, Mus musculus
[19] = tested on: L1210; assay: Effect dose of 50 mg/kg on day 3, before L1210 cell transplantation in mice; type: functional, Mus musculus
[20] = The number of mice survived to that of total at a dose of 100 mg/kg on 30th day; 3/5; type: functional
[21] = The number of mice survived to that of total at a dose of 50 mg/kg on 30th day; 1/5; type: functional
[22] = tested on: L1210; assay: Median survival time at a compound dose of 200 mg/kg, in mice bearing L1210 cells on days 1 and 5; Toxic; type: functional, organism-based; parameters: dose 200 mg/kg; conditions: Mus musculus
[23] = tested on: L1210; assay: Median survival time at a compound dose of 25 mg/Kg, in mice bearing L1210 cells on days 1 and 5; type: functional, Mus musculus
[24] = tested on: Mus musculus; assay: as §2; type: functional
[25] = tested on: Mus musculus; assay: Ratio of the median survival time (treated(T) versus control(C)) at a dose of 25 mg/Kg on days 1 and 5; type: functional
[26] = tested on: Mus musculus; assay: as §3; type: functional
[27] = The number of mice survived to that of total at a dose of 100 mg/kg on 30th day; type: functional
[28] = The number of mice survived to that of total at a dose of 25 mg/Kg on 30th day: 4/5; type: functional
[29] = The number of mice survived to that of total at a dose of 50 mg/Kg on 30th day; type: functional
[30] = tested on: L1210; assay: Median survival time at a compound dose of 25 mg/kg, in mice bearing L1210 cells on days 1 and 5; type: functional, Mus musculus
[31] = tested on: L1210; assay: Median survival time at a compound dose of 75 mg/kg, in mice bearing L1210 cells on days 1 and 5; type: functional, Mus musculus
[32] = tested on: L1210; assay: Ratio of the median survival time (treated(T) versus control(C)) at a dose of 25 mg/kg, on days 1 and 5; type: functional, Mus musculus
[33] = tested on: L1210; assay: Ratio of the median survival time (treated(T) versus control(C)) at a dose of 75 mg/kg on days 1 and 5; type: functional, Mus musculus
[34] = The number of mice survived to that of total at a dose of 25 mg/kg on 30th day; 0/5; type: functional
[35] = The number of mice survived to that of total at a dose of 75 mg/kg on 30th day; 0/5; type: functional

For “2-(2-Amino-6-selanyl-purin-9-yl)-5-hydroxymethyl-tetrahydro-furan-3,4-diol platinum complex”, which Median survival time [1] is on record?
The Median survival time was 12 days.

And the Median survival time ([2]; Mus musculus)?
The Median survival time was 12 days.

What about the Median survival time [3] of the same compound?
The Median survival time was 14 days.

And the Median survival time ([4]; Mus musculus)?
The Median survival time was 9 days.

And the Median survival time [5]?
The Median survival time was 11 days.

And the T/C [6]?
Its T/C is 133%.

And the T/C [7]?
Its T/C is 133%.

And the T/C [8]?
The T/C was 156%.

What about the T/C [9] of the same compound?
Its T/C is 111%.

And the Ratio [10]?
Its Ratio is 0.

What about the Ratio [11] of the same compound?
The Ratio was 0.

And the Ratio [12]?
The Ratio was 0.

And the Ratio [13]?
Its Ratio is 0.

And the Ratio [14]?
Its Ratio is 0.

For `O=c1[nH]c(=S)c2nc[nH]c2[nH]1`, which IC50 [15] is on record?
Its IC50 is 10.6 µM.

What does the source list for `Nc1nc([SeH])c2[nH]cnc2n1`?
IC50 [15]: 0.00416 µM; Median survival time [2]: 18 days; Median survival time [4]: 9 days; Median survival time [16]: >30 days; T/C [17]: >300%; T/C [18]: 200%; T/C [19]: 100%; Ratio [20]: 3; Ratio [21]: 1; Ratio [14]: 0

Which results are given for `Nc1nc2[nH]cnc2c(=S)[nH]1` [THIOGUANINE]?
Median survival time [22]: Toxic; Median survival time [23]: >30 days; Median survival time [2]: 12 days; Median survival time [4]: 10 days; Median survival time [16]: 10 days; T/C [19]: 111%; T/C [24]: 100%; T/C [25]: >300%; T/C [26]: 120%; Ratio [27]: 0; Ratio [28]: 4; Ratio [29]: 0; Ratio [14]: 0

Which Median survival time [30] does the source give for `Nc1nc([SeH])c2ncn(C3O[C@H](CO)[C@H](O)[C@@H]3O)c2n1` (stereo partly drawn) here?
The Median survival time was 15 days.

And the Median survival time [2]?
The Median survival time was 13 days.

And the Median survival time [31]?
Its Median survival time is 13 days.

And the Median survival time [4]?
The Median survival time was 9 days.

And the T/C [32]?
Its T/C is 166.7%.

And the T/C [18]?
Its T/C is 144.4%.

And the T/C [33]?
The T/C was 144.4%.

And the Ratio [34]?
The Ratio was 0.

And the Ratio [12]?
Its Ratio is 0.

What about the Ratio [35] of the same compound?
The Ratio was 0.
